Data taken from publication PMC11460214 (RSC Advances, 2024).

Target: T1, dihydrofolate reductase (Homo sapiens, UniProt P00374)
T1 sequence (P00374 1-187): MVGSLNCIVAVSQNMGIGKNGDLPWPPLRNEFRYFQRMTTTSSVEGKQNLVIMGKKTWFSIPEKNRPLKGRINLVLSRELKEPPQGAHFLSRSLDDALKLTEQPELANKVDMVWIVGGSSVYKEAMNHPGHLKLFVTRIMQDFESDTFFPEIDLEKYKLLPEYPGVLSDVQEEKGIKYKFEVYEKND
Assay: Dihydrofolate reductase enzyme inhibition assay
Format: biochemical
Conditions: for inhibition at 500 µM: read-out: % inhibition (0.5 mM)

Row | IC50 [µM] | inhibition at 500 µM [%] | SMILES
1 | 35.3 ± 0.59 | 77.3 | Fc1ccccc1NC(=S)NN=Cc1ccc(N2CCCC2)cc1 [Compound 5q, N-(2-Fluorophenyl)-2-[4-(pyrrolidin-1-yl)benzylidene]hydrazinecarbothioamide]
2 | 48.2 ± 0.6 | 74.6 | S=C(NCc1ccccc1)NN=Cc1ccc(N2CCCC2)cc1 [Compound 5p, N-Benzyl-2-[4-(pyrrolidin-1-yl)benzylidene]hydrazinecarbothioamide]
3 | 16.3 ± 0.26 | 90.8 | S=C(NN=Cc1ccc(N2CCCC2)cc1)Nc1ccc(Br)cc1 [Compound 5m, N-(4-Bromophenyl)-2-[4-(pyrrolidin-1-yl)benzylidene]hydrazinecarbothioamide]
4 | 22.1 ± 0.37 | 88.2 | S=C(NN=Cc1ccc(N2CCCC2)cc1)Nc1cccc(Br)c1 [Compound 5n, N-(3-Bromophenyl)-2-[4-(pyrrolidin-1-yl)benzylidene]hydrazinecarbothioamide]
5 | 36.2 ± 0.69 | 81.3 | S=C(NN=Cc1ccc(N2CCCC2)cc1)Nc1cccc(Cl)c1Cl [Compound 5c, N-(2,3-Dichlorophenyl)-2-[4-(pyrrolidin-1-yl)benzylidene]hydrazinecarbothioamide]
6 | 29.1 ± 0.38 | 83.6 | S=C(NN=Cc1ccc(N2CCCC2)cc1)NC1CCCCC1 [Compound 5a, N-Cyclohexyl-2-[4-(pyrrolidin-1-yl)benzylidene]hydrazinecarbothioamide]
7 | 54.1 ± 0.72 | 74.1 | O=[N+]([O-])c1ccc(NC(=S)NN=Cc2ccc(N3CCCC3)cc2)cc1 [Compound 5j, N-(4-Nitrophenyl)-2-[4-(pyrrolidin-1-yl)benzylidene]hydrazinecarbothioamide]
8 | 27.5 ± 0.5 | 83.9 | S=C(NCc1ccc(Cl)cc1)NN=Cc1ccc(N2CCCC2)cc1 [Compound 5i, N-(4-Chlorobenzyl)-2-[4-(pyrrolidin-1-yl)benzylidene]hydrazinecarbothioamide]
9 | 40.6 ± 0.59 | 76.9 | S=C(NCCN1CCOCC1)NN=Cc1ccc(N2CCCC2)cc1 [Compound 5k, N-(2-Morpholinoethyl)-2-[4-(pyrrolidin-1-yl)benzylidene]hydrazinecarbothioamide]
10 | 21.2 ± 0.44 | 86.2 | S=C(NN=Cc1ccc(N2CCCC2)cc1)Nc1ccccc1 [Compound 5f, N-Phenyl-2-[4-(pyrrolidin-1-yl)benzylidene]hydrazinecarbothioamide]
11 | 12.4 ± 0.48 | 91.1 | COc1ccc(NC(=S)NN=Cc2ccc(N3CCCC3)cc2)cc1 [Compound 5d, N-(4-Methoxyphenyl)-2-[4-(pyrrolidin-1-yl)benzylidene]hydrazinecarbothioamide]
12 | 45.3 ± 0.63 | 75.6 | O=[N+]([O-])c1cccc(NC(=S)NN=Cc2ccc(N3CCCC3)cc2)c1 [Compound 5o, N-(3-Nitrophenyl)-2-[4-(pyrrolidin-1-yl)benzylidene]hydrazinecarbothioamide]
13 | 42.2 ± 0.63 | 79.8 | Cc1ccc(CNC(=S)NN=Cc2ccc(N3CCCC3)cc2)cc1 [Compound 5r, N-(4-Methylbenzyl)-2-[4-(pyrrolidin-1-yl)benzylidene]hydrazinecarbothioamide]
14 | 23.1 ± 0.35 | 86.7 | COc1cccc(NC(=S)NN=Cc2ccc(N3CCCC3)cc2)c1 [Compound 5h, N-(3-Methoxyphenyl)-2-[4-(pyrrolidin-1-yl)benzylidene]hydrazinecarbothioamide]
15 | 14.4 ± 0.29 | 89.5 | Cc1ccc(NC(=S)NN=Cc2ccc(N3CCCC3)cc2)cc1 [Compound 5g, 2-[4-(Pyrrolidin-1-yl)benzylidene]-N-(p-tolyl)hydrazinecarbothioamide]
16 | 15.3 ± 0.26 | 90.2 | Cc1cccc(C)c1NC(=S)NN=Cc1ccc(N2CCCC2)cc1 [Compound 5e, N-(2,6-Dimethylphenyl)-2-[4-(pyrrolidin-1-yl)benzylidene]hydrazinecarbothioamide]
17 | 33.1 ± 0.71 | 80.6 | Fc1ccc(NC(=S)NN=Cc2ccc(N3CCCC3)cc2)cc1 [Compound 5b, N-(4-Fluorophenyl)-2-[4-(pyrrolidin-1-yl)benzylidene]hydrazinecarbothioamide]
18 | 12.4 ± 0.25 | 91.5 | S=C(NCCc1ccccc1)NN=Cc1ccc(N2CCCC2)cc1 [Compound 5l, N-Phenethyl-2-[4-(pyrrolidin-1-yl)benzylidene]hydrazinecarbothioamide]
